Patent US9908890B2, “Selective inhibitors of constitutive androstane receptor” (ST. JUDE CHILDREN'S RESEARCH HOSPITAL, priority 2014, dated 2018)
Values joined by “and” are separate entries in the source; they are usually repeats but may differ in a detail not shown here. Identical values can stand only once. Like-named read-outs stand apart in the source and are kept apart here.

Molecular target: T1, GST-hCAR-LBD (Homo sapiens, UniProt Q14994)
T1 construct: purchased Life Technologies (Carlsbad, Calif.) or Invitrogen (Carlsbad, Calif.)
T1 sequence (Q14994 109-352 limits assumed): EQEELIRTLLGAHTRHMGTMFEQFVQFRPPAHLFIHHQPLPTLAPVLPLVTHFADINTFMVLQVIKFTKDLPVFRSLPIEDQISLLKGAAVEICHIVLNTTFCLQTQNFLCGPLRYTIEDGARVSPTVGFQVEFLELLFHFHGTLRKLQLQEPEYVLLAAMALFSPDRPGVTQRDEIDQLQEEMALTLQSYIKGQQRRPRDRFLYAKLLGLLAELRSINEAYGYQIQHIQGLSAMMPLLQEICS
Test: CoAct binding inverse agonist assay (LanthaScreen TR-FRET, fluorescent PGC-1α coactivator recruitment/repression)
Assay type: biochemical
Settings: for inhibition at 70 µM: read-out: % Inhibition (70 μM); for fold increase of CAR inverse agonistic activity (potency) over lead chemical 1 (CINPA1) / fold increase of IC50 (decrease of activity) relative to lead chemical 1 (CINPA1): relative to chemical 1
Description: The effect of putative CAR ligands on the recruitment or repression of PGC-1α binding to hCAR was evaluated by using a LanthaScreen TR-FRET assay according to the manufacturer's instructions. […] The final DMSO concentration was 0.7% in all assay wells. […] The % Inhibition values were then plotted for individual chemicals. When applicable, the graphic software GraphPad Prism 5.04 (GraphPad Software, La Jolla, Calif., USA) was used to fit the data into a one-site competitive-binding equation to derive IC50 values. […] The assay plates were then briefly spun down and incubated for 1 hour at room temperature (25° C.). […] The final DMSO concentration was 0.7% in all assay wells. […] The % Inhibition values were then plotted for individual chemicals. When applicable, the graphic software GraphPad Prism 5.04 (GraphPad Software, La Jolla, Calif., USA) was used to fit the data into a one-site competitive-binding equation to derive IC50 values.

[1] = 70 μM compound, 42 μM clotrimazole = 100%, DMSO = 0%
[2] = read-out: IC50 (CAR inverse agonistic activity)
[3] = quoted in SAR text in nM, read-out: IC50 (CAR inverse agonistic activity)

Row | Structure (SMILES) | inhibition at 70 µM [1] [%] | IC50 [2] | further results
1 | CCOC(=O)Nc1ccc2c(c1)N(C(=O)CN(CC)CC)c1ccccc1CC2 [1 (CINPA1)] | – | – | IC50 (Table 6, CINPA1 and commercially available analogs, read-out: IC50): 690 nM
2 | Clc1ccccc1C(c1ccccc1)(c1ccccc1)n1ccnc1 [Clotrimazole, reference compound] | – | – | inhibition at 42 µM (42 μM clotrimazole, positive control): 100%
3 | CCOC(=O)Nc1ccc2c(c1)N(C(=O)CN(CC)CC)c1ccccc1CC2 [Compound 1, ethyl (5-(diethylglycyl)-10,11-dihydro-5H-dibenzo[b,f]azepin-3-yl)carbamate] | 116 | 690 nM | IC50 (Table 4, read-out: IC50): 690 nM
4 | CCCC(=O)Nc1ccc2c(c1)N(C(=O)CN(CC)CC)c1ccccc1CC2 [Compound 2, N-(5-(diethylglycyl)-10,11-dihydro-5H-dibenzo[b,f]azepin-3-yl)butyramide] | 106 | – | IC50 [3]: 2320 nM
5 | CCN(CC)CC(=O)N1c2ccccc2CCc2ccc(NC(=O)C(C)(C)C)cc21 [Compound 4, N-(5-(diethylglycyl)-10,11-dihydro-5H-dibenzo[b,f]azepin-3-yl)pivalamide] | 113 | 1030 nM | –
6 | CCNC(=O)Nc1ccc2c(c1)N(C(=O)CN(CC)CC)c1ccccc1CC2 [Compound 5, 1-(5-(diethylglycyl)-10,11-dihydro-5H-dibenzo[b,f]azepin-3-yl)-3-ethylurea] | 94.9 | 14400 nM | –
7 | CCN(CC)CC(=O)N1c2ccccc2CCc2ccc(NC(=O)NC(C)C)cc21 [Compound 6, 1-(5-(diethylglycyl)-10,11-dihydro-5H-dibenzo[b,f]azepin-3-yl)-3-isopropylurea] | 107 | 4930 nM | –
8 | CCN(CC)CC(=O)N1c2ccccc2CCc2ccc(NC(=O)NC(C)(C)C)cc21 [Compound 7, 1-(tert-butyl)-3-(5-(diethylglycyl)-10,11-dihydro-5H-dibenzo[b,f]azepin-3-yl)urea] | 101 | 13000 nM | –
9 | CCCN(CCC)CC(=O)N1c2ccccc2CCc2ccc(NC(=O)OCC)cc21 [Compound 11, ethyl (5-(dipropylglycyl)-10,11-dihydro-5H-dibenzo[b,f]azepin-3-yl)carbamate] | 113 | 210 nM | fold increase of CAR inverse agonistic activity (potency) over lead chemical 1 (CINPA1): 3 fold
10 | CCOC(=O)Nc1ccc2c(c1)N(C(=O)CN(C(C)C)C(C)C)c1ccccc1CC2 [Compound 12, ethyl (5-(diisopropylglycyl)-10,11-dihydro-5H-dibenzo[b,f]azepin-3-yl)carbamate] | 110 | – | IC50 (Table 4, read-out: IC50): 3050 nM; fold increase of IC50 (decrease of activity) relative to lead chemical 1 (CINPA1): more than 4 fold
11 | CCOC(=O)Nc1ccc2c(c1)N(C(=O)CN1CCCC1)c1ccccc1CC2 [Compound 13, ethyl (5-(2-(pyrrolidin-1-yl)acetyl)-10,11-dihydro-5H-dibenzo[b,f]azepin-3-yl)carbamate] | 115 | 1580 nM | IC50 (Table 4, read-out: IC50): 1580 nM; IC50 [3]: 1580 nM; fold increase of IC50 (decrease of activity) relative to lead chemical 1 (CINPA1): more than 2 fold
12 | CCOC(=O)Nc1ccc2c(c1)N(C(=O)CN1C(C)(C)CCCC1(C)C)c1ccccc1CC2 [Compound 14, ethyl (5-(2-(2,2,6,6-tetramethylpiperidin-1-yl)acetyl)-10,11-dihydro-5H-dibenzo[b,f]azepin-3-yl)carbamate] | 90.5 | 4080 nM | fold IC50 relative to chemical 18 (relative to chemical 18): over 6 fold
13 | CCOC(=O)Nc1ccc2c(c1)N(C(=O)CN1C(=O)C=CC1=O)c1ccccc1CC2 [Compound 15, ethyl (5-(2-(2,5-dioxo-2,5-dihydro-1H-pyrrol-1-yl)acetyl)-10,11-dihydro-5H-dibenzo[b,f]azepin-3-yl)carbamate] | 76 | 39800 nM | fold IC50 relative to chemical 13 (relative to chemical 13): 25 fold
14 | CCOC(=O)Nc1ccc2c(c1)N(C(=O)Cn1cccc1)c1ccccc1CC2 [Compound 16, ethyl (5-(2-(1H-pyrrol-1-yl)acetyl)-10,11-dihydro-5H-dibenzo[b,f]azepin-3-yl)carbamate] | 121 | 37 nM | fold increase of CAR inverse agonistic activity (potency) over lead chemical 1 (CINPA1): 19 fold; fold more potent than chemical 13 (relative to chemical 13): 43 fold
15 | CCOC(=O)Nc1ccc2c(c1)N(C(=O)Cn1ccnc1)c1ccccc1CC2 [Compound 17, ethyl (5-(2-(1H-imidazol-1-yl)acetyl)-10,11-dihydro-5H-dibenzo[b,f]azepin-3-yl)carbamate] | 101 | 6890 nM | fold IC50 relative to chemical 16 (relative to chemical 16): 186 fold
16 | CCOC(=O)Nc1ccc2c(c1)N(C(=O)CN1CCCCC1)c1ccccc1CC2 [Compound 18, ethyl (5-(2-(piperidin-1-yl)acetyl)-10,11-dihydro-5H-dibenzo[b,f]azepin-3-yl)carbamate] | 119 | 620 nM | –
17 | CCOC(=O)Nc1ccc2c(c1)N(C(=O)COC(C)(C)C)c1ccccc1CC2 [Compound 19, ethyl (5-(2-(tert-butoxy)acetyl)-10,11-dihydro-5H-dibenzo[b,f]azepin-3-yl)carbamate] | 120 | 71 nM | fold increase of CAR inverse agonistic activity (potency) over lead chemical 1 (CINPA1): 9.7 fold
18 | CCOC(=O)Nc1ccc2c(c1)N(C(=O)CN1[C@H]3CC[C@@H]1CC3)c1ccccc1CC2 [Compound 20, ethyl (5-(2-((1s,4s)-7-azabicyclo[2.2.1]heptan-7-yl)acetyl)-10,11-dihydro-5H-dibenzo[b,f]azepin-3-yl)carbamate] | 118 | – | –
19 | CCOC(=O)Nc1ccc2c(c1)N(C(=O)CNC(C)(C)CC)c1ccccc1CC2 [Compound 21, ethyl (5-(tert-pentylglycyl)-10,11-dihydro-5H-dibenzo[b,f]azepin-3-yl)carbamate] | 116 | 2060 nM | fold increase of IC50 (decrease of activity) relative to lead chemical 1 (CINPA1): 3 fold
20 | CCOC(=O)Nc1ccc2c(c1)N(C(=O)CCN(CC)CC)c1ccccc1CC2 [Compound 22, ethyl (5-(3-(diethylamino)propanoyl)-10,11-dihydro-5H-dibenzo[b,f]azepin-3-yl)carbamate] | 119 | 2430 nM | fold increase of IC50 (decrease of activity) relative to lead chemical 1 (CINPA1): 3.5 fold
21 | CCOC(=O)Nc1ccc2c(c1)N(C(=O)CCN1CCCC1)c1ccccc1CC2 [Compound 23] | – | 3180 nM | inhibition at 70 µM: 118%
22 | CCNCC(=O)N1c2ccccc2CCc2ccc(NC(=O)OCC)cc21 [Compound 24, ethyl (5-(ethylglycyl)-10,11-dihydro-5H-dibenzo[b,f]azepin-3-yl)carbamate] | 88.4 | – | IC50 (Table 4, read-out: IC50): 24500 nM; fold increase of IC50 (decrease of activity) relative to lead chemical 1 (CINPA1): over 35 fold
23 | CCN(CC)CCC(=O)N1c2ccccc2CCc2ccc(NC(=O)OC(C)C)cc21 [Compound 25, isopropyl (5-(3-(diethylamino)propanoyl)-10,11-dihydro-5H-Dibenzo[b,f]azepin-3-yl)carbamate] | – | 6400 nM | –
24 | CC(C)OC(=O)Nc1ccc2c(c1)N(C(=O)Cn1cccc1)c1ccccc1CC2 [Compound 26, isopropyl (5-(2-(1H-pyrrol-1-yl)acetyl)-10,11-dihydro-5H-dibenzo[b,f]azepin-3-yl)carbamate] | – | 21 nM and 22 nM | fold increase of CAR inverse agonistic activity (potency) over lead chemical 1 (CINPA1): 32.8 fold
25 | CC(C)OC(=O)Nc1ccc2c(c1)N(C(=O)CN1CCCCC1)c1ccccc1CC2 [Compound 27, isopropyl (5-(2-(piperidin-1-yl)acetyl)-10,11-dihydro-5H-dibenzo[b,f]azepin-3-yl)carbamate] | – | 250 nM | –
